The subject of assay [1] is Staphylococcus aureus. The experiment in a line: Antibacterial activity against ciprofloxacin resistant methicillin resistant Staphylococcus aureus OC4222. It is filed as functional.
In assay [2] the test system is Staphylococcus aureus. Kind of assay: Antibacterial activity against ciprofloxacin resistant methicillin resistant Staphylococcus aureus OC5273. The format is functional.
Assay [3] can be described thus: Inhibition of bacterial DNA gyrase.
Assay [4] in a line: Inhibition of bacterial DNA topoisomerase 4.
Another assay relates to Escherichia coli. The experiment in a line: Antibacterial activity against Escherichia coli KL16. It is filed as functional.
The subject of assay [5] is Staphylococcus aureus. The experiment in a line: Antibacterial activity against Staphylococcus aureus ATCC 13709. The format is functional.
For the next assay, the system named is Streptococcus pneumoniae. Kind of assay: Antibacterial activity against Streptococcus pneumoniae ATCC 49619. The format is functional.
The subject of assay [6] is Staphylococcus aureus. Kind of assay: Antibacterial activity against quinolone susceptible methicillin resistant Staphylococcus aureus OC2878. The format is functional.
The subject of assay [7] is Staphylococcus aureus. The experiment in a line: Antibacterial activity against ciprofloxacin resistant methicillin resistant Staphylococcus aureus OC3946. It is filed as functional.
Assay [8] has as its system Staphylococcus aureus. Kind of assay: Antibacterial activity against ciprofloxacin resistant methicillin resistant Staphylococcus aureus OC4159. It is filed as functional.

In brackets after ≈: the same amount, converted by molar mass. A value given as a limit tells only on which side of the number the result lay.

The term MIC denotes the lowest concentration found to suppress growth. A word on the IC50: it is the concentration needed to halve the response being measured. The low end stands for higher potency, the high end for lower potency. Turning to `COc1ccc2nccc(-n3cc4c(n3)CCC(NCc3ccc5c(c3)NC(=O)CS5)C4)c2c1` (stereo not drawn), the MIC in the assay with Staphylococcus aureus [1] is 0.25 µg/mL (≈ 0.53 µM); in the assay with Staphylococcus aureus [2], 0.5 µg/mL (≈ 1.06 µM); with Escherichia coli, 2 µg/mL (≈ 4.24 µM); against Staphylococcus aureus [5] it was 0.5 µg/mL (≈ 1.06 µM); with Streptococcus pneumoniae, 2 µg/mL (≈ 4.24 µM); against Staphylococcus aureus [6] it was 0.5 µg/mL (≈ 1.06 µM). Moreover, the MIC with Staphylococcus aureus [7] and with Staphylococcus aureus [8] was 0.25 µg/mL (≈ 0.53 µM) each time. In addition, the half-inhibitory concentration (IC50) in assay [3] came out at 0.06 µg/mL (≈ 0.127 µM); in assay [4] it was 0.16 µg/mL (≈ 0.339 µM).
As for `COc1ccc2nccc(-n3cc4c(n3)CCC(NC(=O)c3ccc5c(c3)NC(=O)CS5)C4)c2c1` (stereo not drawn), the MIC came out at 0.062 µg/mL (≈ 0.128 µM) against Staphylococcus aureus [1]; 0.25 µg/mL (≈ 0.515 µM) against Staphylococcus aureus [2]; 4 µg/mL (≈ 8.24 µM) in the assay on Escherichia coli; 0.25 µg/mL (≈ 0.515 µM) with Staphylococcus aureus [5]; 2 µg/mL (≈ 4.12 µM) against Streptococcus pneumoniae; 0.125 µg/mL (≈ 0.257 µM) against Staphylococcus aureus [6]. For the same compound, the MIC is 0.015 µg/mL (≈ 0.0309 µM) against Staphylococcus aureus [7] and 0.031 µg/mL (≈ 0.0638 µM) against Staphylococcus aureus [8]. For the same compound, the values for the IC50 in assay [3] and in assay [4] were 0.12 µg/mL (≈ 0.247 µM) and 0.125 µg/mL (≈ 0.257 µM), respectively.
Take `COc1ccc2nccc(-n3cc4c(n3)CCC(NCc3ccc5c(c3)NC(=O)CS5)C4)c2n1` (stereo not drawn): the minimal inhibitory concentration (MIC) was found to be 0.125 µg/mL (≈ 0.265 µM) against Staphylococcus aureus [1]; 0.5 µg/mL (≈ 1.06 µM) against Staphylococcus aureus [2]; 1 µg/mL (≈ 2.12 µM) in the assay with Escherichia coli; 0.25 µg/mL (≈ 0.529 µM) against Staphylococcus aureus [5]; 1 µg/mL (≈ 2.12 µM) against Streptococcus pneumoniae; 0.5 µg/mL (≈ 1.06 µM) in the assay with Staphylococcus aureus [6]. Also, the values for the MIC against Staphylococcus aureus [7] and with Staphylococcus aureus [8] were 0.125 µg/mL (≈ 0.265 µM) and 0.25 µg/mL (≈ 0.529 µM), respectively. The IC50 in [3] came out at 0.125 µg/mL (≈ 0.265 µM); in assay [4] it was 0.03 µg/mL (≈ 0.0635 µM).
On to `COc1ccc2nccc(-n3cc4c(n3)CCC(NC(=O)c3ccc5c(c3)NC(=O)CS5)C4)c2n1` (stereo not drawn), for which the MIC was 0.5 µg/mL (≈ 1.03 µM) against Staphylococcus aureus [1]; 0.062 µg/mL (≈ 0.127 µM) against Staphylococcus aureus [2]; above 128 µg/mL against Escherichia coli; 0.06 µg/mL (≈ 0.123 µM) in the assay with Staphylococcus aureus [5]; 4 µg/mL (≈ 8.22 µM) with Streptococcus pneumoniae; 0.031 µg/mL (≈ 0.0637 µM) against Staphylococcus aureus [6]. Besides, the MIC came to 0.007 µg/mL (≈ 0.0144 µM) against Staphylococcus aureus [7] and 0.5 µg/mL (≈ 1.03 µM) in the assay with Staphylococcus aureus [8]. Moreover, the IC50 in [3] and in [4] was 0.25 µg/mL (≈ 0.514 µM) in each case.
Turning to `O=C1CSc2ccc(C(=O)NC3CCc4nn(-c5cccc6cccnc56)cc4C3)cc2N1` (stereo not drawn), the minimal inhibitory concentration (MIC) against Staphylococcus aureus [1] was determined as 4 µg/mL (≈ 8.78 µM); against Staphylococcus aureus [2], 0.5 µg/mL (≈ 1.1 µM); with Escherichia coli it was 16 µg/mL (≈ 35.1 µM); against Staphylococcus aureus [5], 0.25 µg/mL (≈ 0.549 µM); in the assay with Streptococcus pneumoniae, 4 µg/mL (≈ 8.78 µM); with Staphylococcus aureus [6], 0.25 µg/mL (≈ 0.549 µM). Further, the MIC came to 0.125 µg/mL (≈ 0.274 µM) in the assay with Staphylococcus aureus [7] and 4 µg/mL (≈ 8.78 µM) against Staphylococcus aureus [8]. Also, the values for the 50% inhibitory concentration (IC50) in [3] and in [4] were 2 µg/mL (≈ 4.39 µM) and 0.125 µg/mL (≈ 0.274 µM), respectively.
In the case of `COc1ccc2nccc(-n3cc4c(n3)CCC(NC(=O)c3cc5c(cc3F)SCC(=O)N5)C4)c2n1` (stereo not drawn), the minimum inhibitory concentration (MIC) was determined as 0.015 µg/mL (≈ 0.0297 µM) in the assay on Staphylococcus aureus [1]; 0.031 µg/mL (≈ 0.0614 µM) in the assay on Staphylococcus aureus [2]; 128 µg/mL (≈ 254 µM) in the assay on Escherichia coli; 0.25 µg/mL (≈ 0.495 µM) against Staphylococcus aureus [5]; 2 µg/mL (≈ 3.96 µM) with Streptococcus pneumoniae; 0.031 µg/mL (≈ 0.0614 µM) against Staphylococcus aureus [6]. The MIC in the assay with Staphylococcus aureus [7] and with Staphylococcus aureus [8] was 0.007 µg/mL (≈ 0.0139 µM) each time. The results for the IC50 in assay [3] and in assay [4] were 0.12 µg/mL (≈ 0.238 µM) and 0.125 µg/mL (≈ 0.248 µM), respectively.
Regarding `COc1ccc2nccc(-n3cc4c(n3)CCC(NC(=O)c3cc5c(cc3F)SCC(=O)N5)C4)c2c1` (stereo not drawn), the minimum inhibitory concentration (MIC) in the assay on Staphylococcus aureus [1] was 0.031 µg/mL (≈ 0.0616 µM); with Staphylococcus aureus [2], 0.062 µg/mL (≈ 0.123 µM); against Escherichia coli, 4 µg/mL (≈ 7.94 µM); in the assay on Staphylococcus aureus [5] it was 0.03 µg/mL (≈ 0.0596 µM); with Streptococcus pneumoniae, 1 µg/mL (≈ 1.99 µM); in the assay on Staphylococcus aureus [6], 0.062 µg/mL (≈ 0.123 µM). Also, the MIC against Staphylococcus aureus [7] was 0.015 µg/mL (≈ 0.0298 µM); in the assay with Staphylococcus aureus [8] it was 0.031 µg/mL (≈ 0.0616 µM). In addition, the IC50 in [3] worked out at 8 µg/mL (≈ 15.9 µM); in assay [4], 0.25 µg/mL (≈ 0.496 µM).
For `COc1ccc2nccc(-n3cc4c(n3)CCC(NC/C=C/c3ccccc3)C4)c2c1` (stereo not drawn), the minimal inhibitory concentration (MIC) against Staphylococcus aureus [1] stood at 0.25 µg/mL (≈ 0.609 µM); against Staphylococcus aureus [2], 1 µg/mL (≈ 2.44 µM); in the assay on Staphylococcus aureus [5], 0.5 µg/mL (≈ 1.22 µM); with Streptococcus pneumoniae, 1 µg/mL (≈ 2.44 µM); against Staphylococcus aureus [6], 0.5 µg/mL (≈ 1.22 µM); with Staphylococcus aureus [7] it was 0.5 µg/mL (≈ 1.22 µM). The same compound gave an MIC against Staphylococcus aureus [8] of 0.5 µg/mL (≈ 1.22 µM). Moreover, in assay [3], the IC50 stood at 4 µg/mL (≈ 9.74 µM).
Turning to `COc1ccc2nccc(-n3cc4c(n3)CCC(NCc3ccc5c(c3)OCCO5)C4)c2c1` (stereo not drawn), the minimum inhibitory concentration (MIC) against Staphylococcus aureus [1] amounted to 16 µg/mL (≈ 36.2 µM); in the assay with Staphylococcus aureus [2], 1 µg/mL (≈ 2.26 µM); in the assay with Escherichia coli it was 128 µg/mL (≈ 289 µM); against Staphylococcus aureus [5], 0.5 µg/mL (≈ 1.13 µM); against Streptococcus pneumoniae it was 1 µg/mL (≈ 2.26 µM); against Staphylococcus aureus [6], 0.5 µg/mL (≈ 1.13 µM). Also, the MIC against Staphylococcus aureus [7] is 0.5 µg/mL (≈ 1.13 µM); with Staphylococcus aureus [8] it was 16 µg/mL (≈ 36.2 µM). In addition, the half-inhibitory concentration (IC50) is 2 µg/mL (≈ 4.52 µM) in assay [3] and 0.06 µg/mL (≈ 0.136 µM) in [4].
On to `COc1ccc2nccc(-n3cc4c(n3)CCC(NC/C=C/c3ccccc3)C4)c2n1` (stereo not drawn), for which the MIC is 0.062 µg/mL (≈ 0.151 µM) against Staphylococcus aureus [1]; 0.125 µg/mL (≈ 0.304 µM) against Staphylococcus aureus [2]; 0.06 µg/mL (≈ 0.146 µM) in the assay with Staphylococcus aureus [5]; below 0.125 µg/mL in the assay on Streptococcus pneumoniae; 0.125 µg/mL (≈ 0.304 µM) with Staphylococcus aureus [6]; 0.062 µg/mL (≈ 0.151 µM) in the assay with Staphylococcus aureus [7]. In addition, the minimal inhibitory concentration (MIC) in the assay on Staphylococcus aureus [8] was 0.062 µg/mL (≈ 0.151 µM). Also, the IC50 was 0.12 µg/mL (≈ 0.292 µM) in assay [3] and below 0.015 µg/mL in [4].
For `C[C@@H]1CN(c2c(F)c(N)c3c(=O)c(C(=O)O)cn(C4CC4)c3c2F)C[C@H](C)N1` [SPARFLOXACIN], the MIC against Staphylococcus aureus [1] was 8 µg/mL (≈ 20.4 µM); against Staphylococcus aureus [2], 16 µg/mL (≈ 40.8 µM); in the assay on Staphylococcus aureus [5] it was 0.062 µg/mL (≈ 0.158 µM); against Staphylococcus aureus [6] it was 0.062 µg/mL (≈ 0.158 µM); in the assay on Staphylococcus aureus [7], 4 µg/mL (≈ 10.2 µM); in the assay with Staphylococcus aureus [8] it was 16 µg/mL (≈ 40.8 µM).

For the origin of these results see ChEMBL document CHEMBL1147922, “Tetrahydroindazole inhibitors of bacterial type II topoisomerases. Part 2: SAR development and potency against multidrug-resistant strains” (Bioorg Med Chem Lett, 2007).
